Data: the supplement of paper PMC10627819

How the values were obtained:
Conditions in all cases: main component drawn
B. subtilis 168 [1] = assay: fitness (endpoint OD595 vs no drug) (fraction); higher = more growth
Summary of the method: (§1)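 Bacterial growth was followed in 384-well plates seeded at OD595 0.01, with 30 µl per well, or 55 µl for S. pneumoniae, in TSB, LB Lennox or CY at 37 °C. OD595 was read every 30 min for 14 h, and each reading had the first reading subtracted as background. Fitness is the background-corrected optical density at entry into stationary phase divided by the robust mean of the no-drug control wells. This ratio is capped at 1.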

S. aureus Newman [2] = assay: as above
Summary of the method: as §1

B. subtilis 168 [3] = assay: Bliss interaction score (quartile over a dose matrix) (fitness difference); higher = more antagonism (negative = synergy)
Summary of the method: (§2)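 At entry into stationary phase, OD595 was recorded and divided by the robust mean of the no-drug wells on that plate, with any value above 1 set to 1. This gives the fitness measure used throughout. Single-drug fitness was inferred from combination data, and the Bliss score, observed minus product-expected fitness, is shown as quartiles across technical, biological and donor/recipient replicates.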

S. aureus DSM 20231 = assay: as above
Summary of the method: as §2

S. aureus Newman [4] = assay: as above
Summary of the method: as §2

S. pneumoniae D39V = assay: as above
Summary of the method: as §2
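For Bliss interaction score (quartile over a dose matrix) in this document: first quartile when negative (synergy) and third quartile when positive (antagonism).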

CC[C@H](C)[C@H](N)C1=N[C@H](C(=O)N[C@@H](CC(C)C)C(=O)N[C@H](CCC(=O)O)C(=O)N[C@H](C(=O)N[C@H]2CCCCNC(=O)[C@H](CC(N)=O)NC(=O)[C@@H](CC(=O)O)NC(=O)[C@H](Cc3cnc[nH]3)NC(=O)[C@@H](Cc3ccccc3)NC(=O)[C@H]([C@@H](C)CC)NC(=O)[C@@H](CCCN)NC2=O)[C@@H](C)CC)CS1 [Bacitracin] + CO/N=C(\C(=O)N[C@@H]1C(=O)N2C(C(=O)O)=C(COC(N)=O)CS[C@H]12)c1ccco1 [Cefuroxime]
fitness, B. subtilis 168 [1]
Conditions	first compound 37.5 µg/mL	first compound 75 µg/mL	first compound 150 µg/mL
partner 0.04875 µg/mL	0.691	0.612	–
partner 0.0975 µg/mL	0.629	0.529	0.275
partner 0.195 µg/mL	0.338	0.334	0.0599

fitness, one replicate
Conditions	partner 0.04875 µg/mL	partner 0.0975 µg/mL	partner 0.195 µg/mL	partner 0.39 µg/mL	partner 0.78 µg/mL	partner 1.562 µg/mL	partner 3.125 µg/mL	partner 6.25 µg/mL
B. subtilis 168 [1], first compound 37.5 µg/mL	–	–	–	0.293	0.266	0.419	0.351	0.269
B. subtilis 168 [1], first compound 75 µg/mL	–	–	–	0.089	0.0839	0.352	0.323	0.257
B. subtilis 168 [1], first compound 150 µg/mL	–	–	–	0.0217	0.0185	0.306	0.238	0.155
S. aureus Newman [2], first compound 18.75 µg/mL	0.634	0.599	0.287	–	–	–	–	–
S. aureus Newman [2], first compound 37.5 µg/mL	0.0709	0.0498	0.025	–	–	–	–	–
S. aureus Newman [2], first compound 75 µg/mL	0.0097	0.0027	0.0172	–	–	–	–	–

Conditions	Bliss interaction score
B. subtilis 168 [3]	-0.0903
S. aureus DSM 20231	-0.188
S. aureus Newman [4]	-0.0659
S. pneumoniae D39V	0.0554

CC[C@H](C)[C@H](N)C1=N[C@H](C(=O)N[C@@H](CC(C)C)C(=O)N[C@H](CCC(=O)O)C(=O)N[C@H](C(=O)N[C@H]2CCCCNC(=O)[C@H](CC(N)=O)NC(=O)[C@@H](CC(=O)O)NC(=O)[C@H](Cc3cnc[nH]3)NC(=O)[C@@H](Cc3ccccc3)NC(=O)[C@H]([C@@H](C)CC)NC(=O)[C@@H](CCCN)NC2=O)[C@@H](C)CC)CS1 [Bacitracin] + COc1c(N2C[C@@H]3CCCN[C@@H]3C2)c(F)cc2c(=O)c(C(=O)O)cn(C3CC3)c12 [Moxifloxacin]
fitness
Conditions	partner 0.0075 µg/mL	partner 0.015 µg/mL	partner 0.03 µg/mL	partner 0.0312 µg/mL	partner 0.0625 µg/mL	partner 0.125 µg/mL	partner 2 µg/mL	partner 4 µg/mL	partner 8 µg/mL
B. subtilis 168 [1], first compound 37.5 µg/mL	–	–	–	0.0427	0.0342	0.0345	0.0202	0.0156	0.0081
B. subtilis 168 [1], first compound 75 µg/mL	–	–	–	0.022	0.026	0.0158	0.0179	0.0161	0.009
B. subtilis 168 [1], first compound 150 µg/mL	–	–	–	0.019	0.0046	0.0203	0.0204	0.0121	0.0111
S. aureus Newman [2], first compound 18.75 µg/mL	0.614	0.482	0.0523	–	–	–	–	–	–
S. aureus Newman [2], first compound 37.5 µg/mL	0.133	0.0255	0.0043	–	–	–	–	–	–
S. aureus Newman [2], first compound 75 µg/mL	0.0091	0.0053	0.0025	–	–	–	–	–	–

Conditions	Bliss interaction score
B. subtilis 168 [3]	-0.0316
S. aureus DSM 20231	0.0317
S. aureus Newman [4]	-0.078
S. pneumoniae D39V	0.0806
